Assay results taken from patent publication US10703756B2, “Pyrrolo[2,3-D]pyrimidinyl, pyrrolo[2,3-B]pyrazinyl, pyrrolo[2,3-B]pyridinyl acrylamides and epoxides thereof” (Pfizer Inc., priority 2015, dated 2020).

Columns and labels:
[1] = target: T1, JAK3 enzyme (Homo sapiens, UniProt P52333); assay: JAK Caliper Enzyme Assay at 1 mM ATP; format: biochemical
T1 sequence (P52333 1-1124): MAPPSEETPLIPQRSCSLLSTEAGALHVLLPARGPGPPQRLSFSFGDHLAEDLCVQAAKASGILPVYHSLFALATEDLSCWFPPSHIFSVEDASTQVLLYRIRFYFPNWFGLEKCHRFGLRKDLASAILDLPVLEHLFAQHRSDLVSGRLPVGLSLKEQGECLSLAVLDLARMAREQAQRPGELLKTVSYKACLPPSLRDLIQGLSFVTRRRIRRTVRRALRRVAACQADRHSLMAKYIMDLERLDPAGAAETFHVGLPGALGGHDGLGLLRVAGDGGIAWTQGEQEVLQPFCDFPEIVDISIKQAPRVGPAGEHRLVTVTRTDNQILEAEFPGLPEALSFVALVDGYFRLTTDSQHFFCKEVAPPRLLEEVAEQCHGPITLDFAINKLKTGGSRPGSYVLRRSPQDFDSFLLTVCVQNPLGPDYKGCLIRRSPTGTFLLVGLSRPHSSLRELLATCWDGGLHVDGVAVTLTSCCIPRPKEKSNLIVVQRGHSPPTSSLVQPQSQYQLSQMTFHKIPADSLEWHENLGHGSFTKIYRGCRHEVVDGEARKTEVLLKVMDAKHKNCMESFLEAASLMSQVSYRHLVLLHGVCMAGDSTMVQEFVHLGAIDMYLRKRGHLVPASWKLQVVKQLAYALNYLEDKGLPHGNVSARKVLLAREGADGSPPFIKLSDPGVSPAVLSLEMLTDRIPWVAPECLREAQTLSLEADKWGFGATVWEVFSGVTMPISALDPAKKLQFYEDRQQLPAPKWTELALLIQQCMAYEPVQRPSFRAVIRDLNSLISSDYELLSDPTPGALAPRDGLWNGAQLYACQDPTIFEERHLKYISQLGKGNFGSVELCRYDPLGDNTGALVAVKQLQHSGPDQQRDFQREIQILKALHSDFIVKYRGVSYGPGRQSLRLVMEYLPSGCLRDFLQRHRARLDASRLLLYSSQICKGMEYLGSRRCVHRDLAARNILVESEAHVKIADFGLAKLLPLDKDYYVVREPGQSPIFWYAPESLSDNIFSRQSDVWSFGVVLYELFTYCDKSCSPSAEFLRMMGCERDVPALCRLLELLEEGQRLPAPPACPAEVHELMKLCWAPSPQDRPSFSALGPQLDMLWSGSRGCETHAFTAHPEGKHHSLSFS
Summary of the method: (§1)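 Read-out: microfluidic mobility-shift separation quantifying substrate peptide versus phosphopeptide. Compounds were tested as 11-point half-log dilutions, top 600 μM in DMSO before transfer. Enzyme level and reaction time were tuned for each prep so conversion stayed at 20%-30%.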

[2] = target: T1, JAK3 enzyme; assay: JAK Caliper Enzyme Assay at 4 μM ATP; format: biochemical
Summary of the method: as §1

[3] = system: IL-15 induced P-STAT5 in human PBMC; assay: PBMC IL-15 Induced P-STAT5; format: cell-based; details: human PBMC, IL-15 final 41 ng/mL; read-out: PBMC IL15_pSTAT5_IC50
Description: PBMC IL-15 Induced P-STAT5
Test compounds were serially diluted in DMSO, with further dilution of the compounds in RPMI 1640 medium (Invitrogen #72400) supplemented with 10 mM HEPES, pH 7.4, 1 mM sodium pyruvate, and Penicillin/Streptomycin (by adding 5 μL compound/DMSO in 120 μL Dulbecco's Phosphate-Buffered Saline (D-PBS, 1×), [DMSO]=4%, and mixing the solution by repeated pipetting, 6×). IL-15 was diluted to the concentration at 820 ng/mL in RPMI 1640 medium.
Frozen human PBMC (200-250 million cells/vial) was thawed at 37° C. The cells were transferred to 10 mL warm medium in a 50-mL conical tube, and centrifuged at 1,200 RPM at room temperature for 5 min. The supernatant was aspirated. Cells were suspended in 3 mL warm human plasma and incubated at 37° C. in a tissue culture incubator for 1.5 to 2 h. After adding 47 ml D-PBS (37° C.) to PBMC/FBS suspension, centrifuging at 1,200 RPM at room temperature for 5 min, and aspirating the supernatant, the cells were resuspended in 20 mL warm RPMI medium. Ninety μL of cell suspension were pipetted per well in a 96-well, deep-well, V-bottom plate, and the plate was incubated at 37° C. for 30 min. Five μL of compound were transferred to each well (final 0.2% DMSO), vortex gently and incubate at 37° C. for 15 min; 5 μL 4% DMSO/PBS were added to the control wells. After adding 5 μL 820 ng/mL of human IL-15 (final 41 ng/mL) to each well (5 μL PBS to the control wells), vortexing gently and incubating at 37° C. for 15 min, followed by 0.3 mL 1% paraformaldehyde/PBS (37° C.) to each well, and incubating the plate at room temperature for 15 min, the plates were centrifuged at 1,200 RPM (Beckman GS-6R or Sorvall Legend) at room temperature for 5 min, and the supernatant was aspirated using a 8-channel or 12-channel manifold. After adding 0.8 mL staining buffer per well, the plates were centrifuged at 1,200 RPM (Beckman GS-6R or Sorvall Legend) at room temperature for 5 min, and again the supernatant was aspirated using a 8-channel or 12-channel manifold. The plate was vortexed, and 0.35 mL 90% methanol/10% H2O (−20° C.) was added per well, and the plate incubated on ice for 20 min. After again adding 0.8 mL staining buffer per well, the plates were centrifuged at 1,200 RPM (Beckman GS-6R or Sorvall Legend) at room temperature for 5 min, and again the supernatant was aspirated using a 8-channel or 12-channel manifold, and then 0.8 mL Staining buffer was added per well. After once again adding 0.8 mL staining buffer per well, the plates were centrifuged at 1,200 RPM (Beckman GS-6R or Sorvall Legend) at room temperature for 5 min, and again the supernatant was aspirated using a 8-channel or 12-channel manifold. Then the plate was vortexed, and 250 μL/well of Alexa Fluor® 647 conjugated anti-STAT5 antibody ([…]; […]) was added, and the plate was incubated at 4° C. overnight in the dark. Samples of 250 μL/well were transferred to a 96-well U-bottom plate, and the FACS analysis was performed gating on total lymphocytes. Samples were analyzed using a BD Calibur™ or BD FACSCanto™ flow cytometer equipped with the BD High Throughput Sampler.

C=CC(=O)N1CCC(Nc2cnc3[nH]cc(C(=O)NCc4ccc(CC)c(C)n4)c3n2)CC1 [Example 184, 2-[(1-acryloylpiperidin-4-yl)amino]-N-[(5-ethyl-6-methylpyridin-2-yl)methyl]-5H-pyrrolo[2,3-b]pyrazine-7-carboxamide]
IC50 [1]: 68 nM | IC50 [2]: 1.39 nM | IC50 [3]: 1190 nM

C=CC(=O)N1CCC(Nc2cnc3[nH]cc(C(=O)NCc4cnn(-c5cccc(F)c5)c4)c3n2)CC1 [Example 192, 2-[(1-acryloylpiperidin-4-yl)amino]-N-{[1-(3-fluorophenyl)-1H-pyrazol-4-yl]methyl}-5H-pyrrolo[2,3-b]pyrazine-7-carboxamide]
IC50 [1]: 29 nM | IC50 [2]: 0.627 nM | IC50 [3]: 907 nM

C=CC(=O)N1CCC(Oc2cnc3[nH]cc(C(=O)NCC4CC(F)(F)C4)c3n2)CC1 [Example 197, 2-[(1-acryloylpiperidin-4-yl)oxy]-N-[(3,3-difluorocyclobutyl)methyl]-5H-pyrrolo[2,3-b]pyrazine-7-carboxamide]
IC50 [1]: 147 nM | IC50 [2]: 0.788 nM | IC50 [3]: 706 nM

C=CC(=O)N1CCC(Oc2cnc3[nH]cc(C(=O)NCC4(O)CCC4)c3n2)CC1 [Example 203, 2-[(1-acryloylpiperidin-4-yl)oxy]-N-[(1-hydroxycyclobutyl)methyl]-5H-pyrrolo[2,3-b]pyrazine-7-carboxamide]
IC50 [1]: 370 nM | IC50 [2]: 2.82 nM | IC50 [3]: 4460 nM

C=CC(=O)N1CCC(Oc2cnc3[nH]cc(C(=O)N[C@H]4CC[C@H](F)C4)c3n2)CC1 [Example 210, 2-[(1-acryloylpiperidin-4-yl)oxy]-N-[(1S,3S)-3-fluorocyclopentyl]-5H-pyrrolo[2,3-b]pyrazine-7-carboxamide]
IC50 [1]: 54 nM | IC50 [2]: 0.435 nM | IC50 [3]: 325 nM

C=CC(=O)N1CCC(Oc2cnc3[nH]cc(C(=O)NC4CC(F)(F)C4)c3n2)CC1 [Example 212, 2-[(1-acryloylpiperidin-4-yl)oxy]-N-(3,3-difluorocyclobutyl)-5H-pyrrolo[2,3-b]pyrazine-7-carboxamide]
IC50 [1]: 328 nM | IC50 [2]: 0.922 nM | IC50 [3]: 1340 nM

C=CC(=O)N1CCC(Oc2cnc3[nH]cc(C(=O)NCC(C)(F)F)c3n2)CC1 [Example 215, 2-[(1-acryloylpiperidin-4-yl)oxy]-N-(2,2-difluoropropyl)-5H-pyrrolo[2,3-b]pyrazine-7-carboxamide]
IC50 [1]: 97 nM | IC50 [2]: 0.782 nM | IC50 [3]: 619 nM

C=CC(=O)N1CCC(Oc2cnc3[nH]cc(C(=O)N[C@@H](C(C)C)[C@H](O)C(F)(F)F)c3n2)CC1 [Example 217, 2-[(1-acryloylpiperidin-4-yl)Oxy]-N-[(2S,3S)-1,1,1-trifluoro-2-hydroxy-4-methylpentan-3-yl]-5H-pyrrolo[2,3-b]pyrazine-7-carboxamide]
IC50 [1]: 272 nM | IC50 [2]: 1.97 nM | IC50 [3]: 2090 nM

C=CC(=O)N1CCC(Oc2cnc3[nH]cc(C(=O)NCCCC#N)c3n2)CC1 [Example 218, 2-[(1-acryloylpiperidin-4-yl)oxy]-N-(3-cyanopropyl)-5H-pyrrolo[2,3-b]pyrazine-7-carboxamide]
IC50 [1]: 105 nM | IC50 [2]: 0.627 nM | IC50 [3]: 1200 nM

C=CC(=O)N1C[C@H](Nc2cnc3[nH]cc(C(=O)NCCOC)c3n2)[C@](C)(C#N)C1 [Example 245, 2-{[(3R,4R)-1-acryloyl-4-cyano-4-methylpyrrolidin-3-yl]amino}-N-(2-methoxyethyl)-5H-pyrrolo[2,3-b]pyrazine-7-carboxamide]
IC50 [1]: 297 nM | IC50 [2]: 1.77 nM | IC50 [3]: > 10000 nM

C=CC(=O)N1CCN(c2cnc3[nH]cc(C(=O)NCCOC)c3n2)CC1(C)C [Example 265, 2-(4-acryloyl-3,3-dimethylpiperazin-1-yl)-N-(2-methoxyethyl)-5H-pyrrolo[2,3-b]pyrazine-7-carboxamide]
IC50 [1]: 742 nM | IC50 [2]: 4.63 nM | IC50 [3]: 2060 nM

C=CC(=O)N1CC[C@@H](Nc2cnc3[nH]cc(C(=O)NCC4(O)CCC(F)(F)CC4)c3n2)[C@@H](OC)C1 [Example 268]
IC50 [1]: 330 nM | IC50 [2]: 1.43 nM | IC50 [3]: > 10000 nM

C=CC(=O)N1CC[C@H](Nc2cnc3[nH]cc(C(=O)N[C@@H]4C[C@H]4C(F)(F)F)c3n2)[C@H](OC)C1 [Example 271, 2-{[(3R,4S)-1-acryloyl-3-methoxypiperidin-4-yl]amino}-N-[(1R,2R)-2-(trifluoromethyl)cyclopropyl]-5H-pyrrolo[2,3-b]pyrazine-7-carboxamide]
IC50 [1]: 144 nM | IC50 [2]: 0.676 nM | IC50 [3]: 1140 nM

C=CC(=O)N1CCN(c2cnc3[nH]cc(C(=O)NC4CC(F)(F)C4)c3n2)C[C@@H]1CC(C)C [Example 273, 2-[(3S)-4-acryloyl-3-(2-methylpropyl)piperazin-1-yl]-N-(3,3-difluorocyclobutyl)-5H-pyrrolo[2,3-b]pyrazine-7-carboxamide]
IC50 [1]: 204 nM | IC50 [2]: 1.59 nM | IC50 [3]: 389 nM

C=CC(=O)N1CCN(c2cnc3[nH]cc(C(=O)NCC4CC(F)(F)C4)c3n2)C[C@@H]1CC(C)C [Example 274, 2-[(3S)-4-acryloyl-3-(2-methylpropyl)piperazin-1-yl]-N-[(3,3-difluorocyclobutyl)methyl]-5H-pyrrolo[2,3-b]pyrazine-7-carboxamide]
IC50 [1]: 157 nM | IC50 [2]: 0.984 nM | IC50 [3]: 507 nM

C=CC(=O)N1CCN(c2cnc3[nH]cc(C(=O)NCC(C)(F)F)c3n2)CC1(C)C [Example 275, 2-(4-acryloyl-3,3-dimethylpiperazin-1-yl)-N-(2,2-difluoropropyl)-5H-pyrrolo[2,3-b]pyrazine-7-carboxamide]
IC50 [1]: 418 nM | IC50 [2]: 3.19 nM | IC50 [3]: 1030 nM

C=CC(=O)N1CCN(c2cnc3[nH]cc(C(=O)NCC4CC(F)(F)C4)c3n2)CC1 [Example 276, 2-(4-acryloylpiperazin-1-yl)-N-[(3,3-difluorocyclobutyl)methyl]-5H-pyrrolo[2,3-b]pyrazine-7-carboxamide]
IC50 [1]: 111 nM | IC50 [2]: 0.479 nM | IC50 [3]: 623 nM
